The test system of experiment [1] is rat plasma triglyceride levels. The experiment can be described thus: Rat plasma triglyceride levels after 3 or 5 days BID oral treatment. The note with it: male SD rats, 25 mg/kg po BID for 3 or 5 days, plasma 16 hours after last dose. The experiment is classed as in vivo.
Experimental: 112 male SD rats (Harlan) were housed in groups of 6 under a 12 h light dark cycle (lights on 07.00 h) with free access to food (normal laboratory chow) and water. Animals between 148-183 g were allocated to treatment groups of 8 balanced by body weight and treatments were balanced across cages.
Four rosuvastatin analogues were made up in 10% PEG300/10% cremophor/80% methyl cellulose (0.5%) (vehicle 1) to make a 5 mg/mL solution.
Rosuvastatin was formulated in 0.5% Tween in 0.5% methyl cellulose (vehicle 2) at 5 mg/kg as a suspension.
Rats were orally dosed with vehicle 1, one of the four rosuvastatin analogues in vehicle 1 (25 mg/kg), vehicle 2 or rosuvastatin in vehicle 2 (25 mg/kg po), BID for 3 or 5 days.
Sixteen hours after the last treatment, terminal plasma samples were taken, stored at −20° C., and transported on dry ice for analysis of triglyceride levels.
Data for each time-point were analysed by 1-way ANOVA and post-hoc Dunnett's test.
The target in the next experiment is HMG-CoA Reductase (Homo sapiens (Human), UniProt P04035). The experiment can be described thus: HMG-CoA Reductase assay kit (Sigma-Aldrich CS1090), spectrophotometric NADPH absorbance at 340 nm. The experiment is classed as biochemical. The note with it: inhibitor varied 0 nM to 50 nM, NADPH and HMG-CoA 200 μM. The protocol:
All assays were carried out in a reaction buffer containing […] KxPO4 at pH 7.2, 1 mM EDTA, 500 mM KCl and 1 mg/ml BSA. The concentrations of NADPH and HMG-CoA were both 200 μM. […] Absorbance readings were then taken every 20 seconds for 600 seconds.
Preparation of the Assay Solution
Add a buffer to all samples. • b. […] Add the reconstituted NADPH to all samples. • d. Add Substrate Solution (HMG-CoA) to all samples. • e. […] Mix the samples thoroughly.
3. The kinetics programme was started immediately.
V=volume of enzyme used in the assay (ml)
0.6=enzyme concentration in mg-protein (mgPO/ml (0.55-0.65 mgP/ml)
LP=light path in cm (1 for cuvettes).

A value given as a limit tells only on which side of the number the result lay.

Chain of HMG-CoA Reductase (P04035 340-888): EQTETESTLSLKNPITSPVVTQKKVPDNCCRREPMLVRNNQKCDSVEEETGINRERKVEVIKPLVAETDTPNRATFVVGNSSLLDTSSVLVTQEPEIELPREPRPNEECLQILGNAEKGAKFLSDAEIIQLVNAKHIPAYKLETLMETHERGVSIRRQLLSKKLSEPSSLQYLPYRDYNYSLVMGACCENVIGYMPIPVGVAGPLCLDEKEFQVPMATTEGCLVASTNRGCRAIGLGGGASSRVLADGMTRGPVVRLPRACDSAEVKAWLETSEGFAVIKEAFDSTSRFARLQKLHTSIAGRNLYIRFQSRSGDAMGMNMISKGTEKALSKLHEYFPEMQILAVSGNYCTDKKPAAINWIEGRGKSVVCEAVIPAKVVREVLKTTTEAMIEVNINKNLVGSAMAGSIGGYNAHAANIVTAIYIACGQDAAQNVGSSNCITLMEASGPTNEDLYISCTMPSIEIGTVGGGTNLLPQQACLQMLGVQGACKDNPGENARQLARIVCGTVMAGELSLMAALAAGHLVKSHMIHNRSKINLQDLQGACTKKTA

As to `CC(C)c1nc(N(C)S(C)(=O)=O)nc(-c2ccc(F)cc2)c1C=CC(O)CC(O)CC(=O)O` (centres unmarked) [rosuvastatin, 7-[4-(4-fluorophenyl)-6-(1-methylethyl)-2-(methyl-methylsulfonyl-amino)-pyrimidin-5-yl]-3,5-dihydroxy-hept-6-enoic acid], the “effect on plasma triglycerides” value in experiment [1] is listed as “marked reduction in plasma triglycerides”.

As usually defined, the IC50 is the point on the concentration scale where inhibition reaches its midpoint. The low end stands for greater potency in that assay, the high end for weaker potency in that assay. As for `CC(C)c1nc(N(C)S(C)(=O)=O)nc(-c2ccc(F)cc2)c1/C=C/[C@@H]1C[C@@H](O)CC(OCC(Cl)(Cl)Cl)O1` (some centres unmarked), on HMG-CoA Reductase (rosuvastatin compounds), the IC50 was 2 nM. `CC(C)c1c(C(=O)Nc2ccccc2)c(-c2ccccc2)c(-c2ccc(F)cc2)n1CC[C@@H]1C[C@@H](O)CC(OC2CCCCC2)O1` (some centres unmarked) showed an IC50 at HMG-CoA Reductase (atorvastatin compounds) of less than 1 nM. Compound `CC(C)c1nc(N(C)S(C)(=O)=O)nc(-c2ccc(F)cc2)c1/C=C/[C@@H]1C[C@@H](O)CC(Oc2c(F)cc(F)cc2F)O1` (some centres unmarked) registered a half-inhibitory concentration (IC50) against HMG-CoA Reductase (rosuvastatin compounds) of 1 nM. Regarding `CCCOC1C[C@H](O)C[C@@H](CCn2c(-c3ccc(F)cc3)c(-c3ccccc3)c(C(=O)Nc3ccccc3)c2C(C)C)O1` (some centres unmarked), the 50% inhibitory concentration (IC50) at HMG-CoA Reductase (atorvastatin compounds) was less than 1 nM. Still for that read-out and setting: the figure for `COC1C[C@H](OC(=O)c2cccnc2)C[C@@H](CCn2c(-c3ccc(F)cc3)c(-c3ccccc3)c(C(=O)Nc3ccccc3)c2C(C)C)O1` (some centres unmarked) is less than 1 nM. Consider `CCCOC1C[C@H](O)C[C@@H](/C=C/c2c(-c3ccc(F)cc3)nc(N(C)S(C)(=O)=O)nc2C(C)C)O1` (some centres unmarked), for which, at HMG-CoA Reductase (rosuvastatin compounds), the midpoint of inhibition, the IC50, lay at 10 nM.

Take `COc1ccc(OC2C[C@H](O)C[C@@H](CCn3c(-c4ccc(F)cc4)c(-c4ccccc4)c(C(=O)Nc4ccccc4)c3C(C)C)O2)c(OC)c1` (some centres unmarked): the half-maximal inhibitory concentration (IC50) against HMG-CoA Reductase (atorvastatin compounds) was less than 1 nM.

`CC(C)c1nc(N(C)S(C)(=O)=O)nc(-c2ccc(F)cc2)c1/C=C/[C@@H]1C[C@@H](OCc2ccccc2)CC(OCC(Cl)(Cl)Cl)O1` (some centres unmarked) showed an IC50 on HMG-CoA Reductase (rosuvastatin compounds) of 2 nM. The same measure, in the same setting: the figure for `COC1C[C@H](OC(=O)c2cccnc2)C[C@@H](/C=C/c2c(-c3ccc(F)cc3)nc(N(C)S(C)(=O)=O)nc2C(C)C)O1` (some centres unmarked) is less than 1 nM. The same measure, in the same setting: the figure for `COc1ccc(OC2C[C@H](O)C[C@@H](/C=C/c3c(-c4ccc(F)cc4)nc(N(C)S(C)(=O)=O)nc3C(C)C)O2)c(OC)c1` (some centres unmarked) is 2 nM.

(Values after patent US9006282B2 (Redx Pharma Limited, priority 2009, dated 2015).)
